Converted amounts (≈) assume the structure as drawn.
Columns and labels:
Streptococcus pneumoniae [1] = assay: In vitro antibacterial activity against Streptococcus pneumoniae PU7 (resistance due to modified target enzyme; type: functional
Streptococcus agalactiae = assay: In vitro antibacterial activity against Streptococcus agalactiae 2798; type: functional
Proteus mirabilis = assay: In vitro antibacterial activity against Proteus mirabilis C977; type: functional
Morganella morganii = assay: In vitro antibacterial activity against Morganella morganii T361; type: functional
Staphylococcus aureus [2] = assay: In vitro antibacterial activity against Staphylococcus aureus MB9; type: functional
Escherichia coli [3] = assay: In vitro antibacterial activity against Escherichia coli 1077 (resistance due to beta-lactamase); type: functional
Pseudomonas aeruginosa [4] = assay: In vitro antibacterial activity against Pseudomonas aeruginosa 10662; type: functional
Moraxella catarrhalis = assay: In vitro antibacterial activity against Branhamella catarrhalis Ravasio (resistance due to beta-lactamase); type: functional
Enterococcus faecalis [5] = assay: In vitro antibacterial activity against S. faecalis I; type: functional
Staphylococcus aureus [6] = assay: In vitro antibacterial activity against Staphylococcus aureus Oxford; type: functional
Escherichia coli [7] = assay: In vitro antibacterial activity against Escherichia coli JT425 (resistance due to beta-lactamase); type: functional
[8] = test system: Staphylococcus epidermidis; assay: In vitro antibacterial activity against Staphylococcus epidermidis PHLN20; type: functional
Escherichia coli [9] = assay: In vitro antibacterial activity against Escherichia coli 10418; type: functional
[10] = Half-life in a rat liver homogenate preparation; type: ADME
Klebsiella pneumoniae = assay: In vitro antibacterial activity against Klebsiella pneumoniae T767; type: functional
Haemophilus influenzae [11] = assay: In vitro antibacterial activity against Haemophilus influenzae NEMC (resistance due to beta-lactamase); type: functional
Staphylococcus aureus [12] = assay: In vitro antibacterial activity against Staphylococcus aureus Russell (resistance due to beta-lactamase); type: functional
Streptococcus pneumoniae [13] = assay: In vitro antibacterial activity against Streptococcus pneumoniae 1716; type: functional
Staphylococcus aureus [14] = assay: In vitro antibacterial activity against Staphylococcus aureus V573 (resistance due to modified target enzyme); type: functional
Escherichia coli [15] = assay: In vitro antibacterial activity against Escherichia coli ESS; type: functional
Haemophilus influenzae [16] = assay: In vitro antibacterial activity against Haemophilus influenzae Q1; type: functional
Streptococcus pyogenes = assay: In vitro antibacterial activity against Streptococcus pyogenes CN10; type: functional
Enterococcus faecalis [17] = assay: In vitro antibacterial activity against Streptococcus faecalis I; type: functional
Staphylococcus aureus [18] = assay: In vitro antibacterial activity against S. aureus MB9; type: functional
Streptococcus pneumoniae [19] = assay: In vitro antibacterial activity against Streptococcus pneumoniae PU7 (resistance due to modified target enzyme); type: functional
Staphylococcus aureus [20] = assay: In vitro antibacterial activity against Staphylococcus aureus Russell (resistance due to beta-lactamase; type: functional
Pseudomonas aeruginosa [21] = assay: In vitro antibacterial activity was determined against Pseudomonas aeruginosa 10662; type: functional

SMILES | MIC (Streptococcus pneumoniae [1]) [µg/mL] | MIC (Streptococcus agalactiae) [µg/mL] | MIC (Proteus mirabilis) [µg/mL] | MIC (Morganella morganii) [µg/mL] | MIC (Staphylococcus aureus [2]) [µg/mL] | MIC (Escherichia coli [3]) [µg/mL] | MIC (Pseudomonas aeruginosa [4]) [µg/mL] | MIC (Moraxella catarrhalis) [µg/mL] | MIC (Staphylococcus aureus [6]) [µg/mL] | MIC (Escherichia coli [7]) [µg/mL] | MIC [8] [µg/mL] | MIC (Escherichia coli [9]) [µg/mL] | MIC (Klebsiella pneumoniae) [µg/mL] | MIC (Staphylococcus aureus [12]) [µg/mL] | MIC (Streptococcus pneumoniae [13]) [µg/mL] | MIC (Staphylococcus aureus [14]) [µg/mL] | MIC (Escherichia coli [15]) [µg/mL] | MIC (Haemophilus influenzae [16]) [µg/mL] | MIC (Streptococcus pyogenes) [µg/mL] | MIC (Enterococcus faecalis [17]) [µg/mL] | further results
CC(=O)OCC1=C(C(=O)O)N2C(=O)[C@@H](NC(=O)/C(=N\O)c3cnc(N)s3)[C@H]2SC1 | 2 (≈ 4.53 µM) | 0.06 (≈ 0.136 µM) | 0.06 (≈ 0.136 µM) | 0.06 (≈ 0.136 µM) | 0.5 (≈ 1.13 µM) | 0.06 (≈ 0.136 µM) | > 32 | 2 (≈ 4.53 µM) | 0.25 (≈ 0.566 µM) | 1 (≈ 2.27 µM) | 0.25 (≈ 0.566 µM) | 0.06 (≈ 0.136 µM) | 0.06 (≈ 0.136 µM) | 0.5 (≈ 1.13 µM) | 0.06 (≈ 0.136 µM) | > 32 | < 0.03 | 0.12 (≈ 0.272 µM) | – | – | MIC (Enterococcus faecalis [5]): 4 µg/mL (≈ 9.06 µM); half-life [10]: ≤ 15 min; MIC (Haemophilus influenzae [11]): 0.06 µg/mL (≈ 0.136 µM)
CO/N=C(\C(=O)N[C@@H]1C(=O)N2C(C(=O)O)=C(COC(C)=O)CS[C@H]12)c1csc(N)n1 [CEFOTAXIME] | 2 (≈ 4.39 µM) | 0.12 (≈ 0.263 µM) | < 0.03 | 2 (≈ 4.39 µM) | 4 (≈ 8.78 µM) | – | 16 (≈ 35.1 µM) | 0.25 (≈ 0.549 µM) | 2 (≈ 4.39 µM) | 0.5 (≈ 1.1 µM) | 1 (≈ 2.2 µM) | < 0.03 | 0.06 (≈ 0.132 µM) | 2 (≈ 4.39 µM) | < 0.03 | 32 (≈ 70.3 µM) | < 0.03 | < 0.03 | < 0.03 | – | MIC (Enterococcus faecalis [5]): > 64 µg/mL; half-life [10]: ≤ 15 min
C/C=C(\C)C(=O)OCC1=C(C(=O)O)N2C(=O)[C@@H](NC(=O)/C(=N\O)c3cnc(N)s3)[C@H]2SC1 | 0.5 (≈ 1.04 µM) | ≤ 0.03 | 0.25 (≈ 0.519 µM) | 0.12 (≈ 0.249 µM) | 0.5 (≈ 1.04 µM) | 0.25 (≈ 0.519 µM) | > 64 | 4 (≈ 8.31 µM) | 0.25 (≈ 0.519 µM) | 0.5 (≈ 1.04 µM) | 0.25 (≈ 0.519 µM) | 0.12 (≈ 0.249 µM) | 0.5 (≈ 1.04 µM) | 0.5 (≈ 1.04 µM) | ≤ 0.03 | 8 (≈ 16.6 µM) | ≤ 0.03 | ≤ 0.03 | ≤ 0.03 | > 64 | –
C=C(C)C(=O)OCC1=C(C(=O)O)N2C(=O)[C@@H](NC(=O)/C(=N\O)c3cnc(N)s3)[C@H]2SC1 | 1 (≈ 2.14 µM) | < 0.03 | 0.06 (≈ 0.128 µM) | 0.06 (≈ 0.128 µM) | – | 0.06 (≈ 0.128 µM) | 64 (≈ 137 µM) | 0.5 (≈ 1.07 µM) | 0.06 (≈ 0.128 µM) | 0.12 (≈ 0.257 µM) | 0.06 (≈ 0.128 µM) | < 0.03 | 0.12 (≈ 0.257 µM) | 0.25 (≈ 0.535 µM) | < 0.03 | 2 (≈ 4.28 µM) | < 0.03 | < 0.03 | < 0.03 | 32 (≈ 68.5 µM) | MIC (Staphylococcus aureus [18]): 0.25 µg/mL (≈ 0.535 µM)
CC(C)=CC(=O)OCC1=C(C(=O)O)N2C(=O)[C@@H](NC(=O)/C(=N\O)c3cnc(N)s3)[C@H]2SC1 | – | < 0.03 | 0.25 (≈ 0.519 µM) | 0.25 (≈ 0.519 µM) | 0.5 (≈ 1.04 µM) | 0.25 (≈ 0.519 µM) | – | 4 (≈ 8.31 µM) | 0.25 (≈ 0.519 µM) | 0.5 (≈ 1.04 µM) | 0.25 (≈ 0.519 µM) | 0.06 (≈ 0.125 µM) | 0.5 (≈ 1.04 µM) | – | < 0.03 | 8 (≈ 16.6 µM) | < 0.03 | 0.06 (≈ 0.125 µM) | < 0.03 | 8 (≈ 16.6 µM) | MIC (Streptococcus pneumoniae [19]): 0.5 µg/mL (≈ 1.04 µM); MIC (Staphylococcus aureus [20]): 0.5 µg/mL (≈ 1.04 µM); MIC (Pseudomonas aeruginosa [21]): > 64 µg/mL; MIC (Haemophilus influenzae [11]): < 0.03 µg/mL
